Legend:
Format in all cases: in vivo, rat
[1] = tested on: Wistar rats; test: Acute survival study after LPS
Procedure: (§1) The animal experiment is approved by the Animal Care and Use Committee at the Kaohsiung Medical University. The male Wistar rats, weighing 250-350 g, are provided by the National Laboratory Animal Breeding and Research Center (Taipei, Taiwan). The rats are housed under conditions of constant temperature and controlled illumination (light regime of 12 h light and 12 h darkness). The rats are allowed food and water ad libitum. They are anesthetized with an intraperitoneal (i.p.) injection of pentobarbital sodium (50 mg/kg). Following tracheal cannulation, systemic arterial blood pressure and heart rate are recorded from the femoral artery with a pressure transducer (Spectramed, Model P10EZ, USA). Body temperature is maintained at 37° C. by an electric heating pad. A femoral vein is cannulated for the administration of LPS (E. coli serotype 026:B6), HBCM, baicalin, or dexamethasone (DEXA), respectively. The rats are injected intravenously with either saline (0.1 ml/kg) or LPS (10 mg/kg) for control and experimental purposes, respectively. All the animals are assigned to one of the following groups: saline only, LPS/saline, LPS/HBCM (75 mg/kg), LPS/baicalin (1.5 mg/kg), and LPS/DEXA (0.5 mg/kg) groups. LPS is injected at a dose of 10 mg/kg, after 10 min, HBCM, baicalin and DEXA are given, respectively.
A single injection of LPS (10 mg/kg, i.v.) leads to a biphasic arterial hypotension: an initial and transient decrease in arterial mean blood pressure (about 10 min), followed by a delayed and prolonged hypotension. The HBCM (75 mg/kg, i.v.), baicalin (1.5 mg/kg, i.v.) and DEXA (0.5 mg/kg, i.v.) are administrated 10 min after LPS administration. The used dose of baicalin is according to the content of baicalin in HBCM by the HPLC method. Separate groups are used for acute survival study (n=10 each), lung tissue sampling (n=10 each), and blood sampling (n=10 each). […]
The animals without pulmonary are monitored per 30 minutes for 7 hours after LPS administration. The blood pressure (BP) changes were recorded within 5 hours after LPS injection. […]

[2] = tested on: TGF-β; test: LPS-induced TGF-β in lung tissues (western blot); conditions: 5 h after LPS 10 mg/kg; HBCM 75, baicalin 1.5, DEXA 0.5 mg/kg post-treatment; FIG. 8
Procedure: as §1, with “All the animals are assigned to one of the following groups: saline only, LPS/saline, LPS/HBCM (75 mg/kg), LPS/baicalin (1.5 mg/kg), and LPS/DEXA (0.5 mg/kg) groups. LPS is injected at a dose of 10 mg/kg, after 10 min, HBCM, baicalin and DEXA are given, respectively.” left out
(§2) The HBCM, baicalin and DEXA are post-treated 10 minutes after the administration of LPS. […] The expression of each protein is detected by enhanced chemiluminescence using Hyperfilm and ECL reagent (Amersham, UK).

[3] = tested on: ICAM-1; test: LPS-induced ICAM-1 in lung tissues (western blot); conditions: 5 h after LPS 10 mg/kg; HBCM 75, baicalin 1.5, DEXA 0.5 mg/kg post-treatment; FIG. 8
Procedure: as §1, with “All the animals are assigned to one of the following groups: saline only, LPS/saline, LPS/HBCM (75 mg/kg), LPS/baicalin (1.5 mg/kg), and LPS/DEXA (0.5 mg/kg) groups. LPS is injected at a dose of 10 mg/kg, after 10 min, HBCM, baicalin and DEXA are given, respectively.” left out
as §2

[4] = tested on: phosphorylated p38 MAP kinase; test: LPS-induced phosphorylated p38 MAP kinase in lung tissues (western blot); conditions: 5 h after LPS 10 mg/kg; HBCM 75, baicalin 1.5, DEXA 0.5 mg/kg post-treatment; FIG. 8
Procedure: as §1, with “All the animals are assigned to one of the following groups: saline only, LPS/saline, LPS/HBCM (75 mg/kg), LPS/baicalin (1.5 mg/kg), and LPS/DEXA (0.5 mg/kg) groups. LPS is injected at a dose of 10 mg/kg, after 10 min, HBCM, baicalin and DEXA are given, respectively.” left out
as §2

[5] = tested on: MCP-1; test: LPS-induced plasma MCP-1 immunoreactivity (post-treatment, ELISA); conditions: LPS 10 mg/kg i.v.; post-treatment 10 min after LPS; up to 5 hours; FIG. 9
Procedure: as §1, with “given, respectively. […]” for “given, respectively.”

[6] = tested on: iNOS; test: LPS-induced iNOS in lung tissues (western blot); conditions: 5 h after LPS 10 mg/kg; HBCM 75, baicalin 1.5, DEXA 0.5 mg/kg post-treatment; FIG. 8
Procedure: as §1, with “All the animals are assigned to one of the following groups: saline only, LPS/saline, LPS/HBCM (75 mg/kg), LPS/baicalin (1.5 mg/kg), and LPS/DEXA (0.5 mg/kg) groups. LPS is injected at a dose of 10 mg/kg, after 10 min, HBCM, baicalin and DEXA are given, respectively.” left out
as §2

[7] = tested on: Wistar rats; test: Attenuation of LPS-induced arterial hypotension (post-treatment); conditions: HBCM 75 mg/kg, baicalin 1.5 mg/kg, DEXA 0.5 mg/kg i.v. 10 min after LPS 10 mg/kg i.v.; FIG. 3
Procedure: as §1, with “given, respectively. […]” for “given, respectively.”

[8] = tested on: Wistar rats; test: LPS-induced lung edema (wet/dry weight ratio); conditions: 5 hours after LPS; HBCM, baicalin, DEXA given 10 min after LPS; FIG. 7
Procedure: as §1, with “The rats are injected intravenously with either saline (0.1 ml/kg) or LPS (10 mg/kg) for control and experimental purposes, respectively. All the animals are assigned to one of the following groups: saline only, LPS/saline, LPS/HBCM (75 mg/kg), LPS/baicalin (1.5 mg/kg), and LPS/DEXA (0.5 mg/kg) groups. LPS is injected at a dose of 10 mg/kg, after 10 min, HBCM, baicalin and DEXA are given, respectively.” left out
The water content of the lungs is determined by calculating the wet/dry weight ratio of lung tissues at 5 hours after LPS administration. […] The dry weight is determined after the lung is dried at 80° C. for 72 hours, and the edema index (wet/dry weight ratio) is calculated by dividing the wet weight by the dry weight. The edema index indicates the water content of the lung, which is determined by calculating the wet/dry weight ratio of lung tissues at 5 hours after LPS administration.

[9] = tested on: TNF-α; test: LPS-induced plasma TNF-α immunoreactivity (post-treatment, ELISA); conditions: LPS 10 mg/kg i.v.; HBCM 75, baicalin 1.5, DEXA 0.5 mg/kg 10 min after LPS; FIG. 9
Procedure: as §1, with “given, respectively. […]” for “given, respectively.”

[10] = tested on: IL-1β; test: LPS-induced plasma IL-1β immunoreactivity (post-treatment, ELISA); conditions: LPS 10 mg/kg i.v.; post-treatment 10 min after LPS; up to 5 hours; FIG. 9
Procedure: as §1, with “given, respectively. […]” for “given, respectively.”

Row | SMILES | time all the rats survive ([1]; LPS 10 mg/kg, DEXA 0.5 mg/kg i.v. 10 min after LPS, n=10) | survival for 7 hours ([1]; LPS 10 mg/kg, HBCM 75 mg/kg or baicalin 1.5 mg/kg i.v. 10 min after LPS, n=10) | survival rate compared with LPS/saline group ([1]; post-treatment 10 min after LPS 10 mg/kg, FIG. 6) | LPS-induced TGF-β expression in lung tissues [2] | LPS-induced ICAM-1 expression in lung tissues [3] | LPS-induced phosphorylated p38 MAP kinase expression in lung tissues [4] | elevation of plasma MCP-1 vs LPS/saline group [5] | LPS-induced iNOS expression in lung tissues [6] | LPS-induced prolonged arterial hypotension [7] | LPS-induced lung edema (wet/dry weight ratio) [8] | elevation of plasma TNF-α vs LPS/saline group [9] | elevation of plasma IL-1β vs LPS/saline group [10]
1 | C[C@@H]1C[C@H]2[C@@H]3CCC4=CC(=O)C=C[C@]4(C)[C@@]3(F)[C@@H](O)C[C@]2(C)[C@@]1(O)C(=O)CO [DEXA, dexamethasone] | more than 7 hours |  |  |  |  |  |  |  |  |  |  | 
2 | O=C(O)[C@H]1O[C@@H](Oc2cc3oc(-c4ccccc4)cc(=O)c3c(O)c2O)[C@H](O)[C@@H](O)[C@@H]1O [baicalin] |  | 90% | significantly better survival rate | significant inhibition | significant inhibition | significant inhibition | lower | significant inhibition | significantly attenuates | significantly attenuates | significantly lower | lower
